Experimental data taken from patent US20070249548A1, “Nucleoside Analog or Salts of the Same” (GIFU UNIVERSITY, priority 2004, published 2007).
[TBDPS-acyc] = code of the source, not defined here; d = 2'-deoxy (DNA)

Tested on: oligonucleotide made from sequence number 2
Experiment: Stability of the double strand (Tm value)
Type: physicochemical
Conditions: double strand with oligonucleotide of sequence number 2; annealing buffer 10 mM sodium phosphate (pH 7.0), 1 M NaCl

| Substance | Tm value [°C] |
| --- | --- |
| Example 10: Double-stranded oligonucleotide analog composed of the oligonucleotide analog of sequence number 1 and the oligonucleotide of sequence number 2 (chain 1 AAGGAAAAGAGGAAAGA; chain 2 TCTTTCCTCTTTTCCTT; chain 1: sugars from the 5' end d7 [TBDPS-acyc]1 d9, backbone not given here; chain 2: DNA, backbone not given here) | 49.1 |
| Comparative Example 2: Double-stranded oligonucleotide composed of the oligonucleotides made from sequence number 3 and sequence number 2 (chain 1 AAGGAAAAGAGGAAAGA; chain 2 TCTTTCCTCTTTTCCTT; DNA, backbone not given here) | 57.7 |
